Series [1] deals with P-gp. Kind of series: in vitro. The note with it: pig, LLC-PK1.
Series [2] relates to P-gp. Description: in vitro. The note with it: pig, LLC-PK1. The source holds these as a separate data set.
Another series is described as follows: physchem. The note with it: PBS, pH 7.

Regarding `NC(=O)c1cc(-c2ccc(F)cc2)c2ccc(CCc3cncnc3)cc2n1`, the Papp in the series on P-gp [1] stood at 30 ×10⁻⁶ cm/s; in the series on P-gp [2] it was 28 ×10⁻⁶ cm/s. Also, the log distribution coefficient (logD) in the series “physchem” is 2.31.
For `NC(=O)c1cc(-c2ccc(F)cc2)c2ccc(CCc3ccncc3)cc2n1`, in that order: 21 ×10⁻⁶ cm/s, 24 ×10⁻⁶ cm/s and 2.88.
In turn, `NC(=O)c1cc(-c2ccc(F)cc2)c2ccc(Cc3ccncc3)cc2n1` yielded a log distribution coefficient (logD) in the series “physchem” of 2.7.
Still for that read-out and setting: the result for `NC(=O)c1cc(-c2ccc(F)cc2)c2ccc(CN3C(=O)CCC3=O)cc2n1` reads 2.24.
In the case of `NC(=O)c1cc(-c2ccc(F)cc2)c2ccc(CCc3cccnc3)cc2n1`, the Papp was 21 ×10⁻⁶ cm/s with P-gp [1] and 22 ×10⁻⁶ cm/s with P-gp [2]. In the series “physchem”, the pH-dependent lipophilicity (logD) came out at 2.85.

By Papp is commonly meant a coefficient for how fast a substance crosses the barrier. Low values mean slow passage, high ones fast passage. For orientation: logD means lipophilicity at a set pH, counting ionised and neutral species. Read a high logD as higher lipophilicity.
